Laboratory results as given in patent US6737383B1, “Herbicidal oxadiazolidines” (priority 1999, dated 2004).

Tests used:
[1] = tested on: giant foxtail; assay: Test B pre/postemergence giant foxtail; assay type: in vivo, Setaria faberii
Outline: (§1)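 Response is a visual 0-to-10 score relative to untreated plants, where 0 means no effect and 10 means complete control, taken twelve to sixteen days after application. Treatments went onto soil at planting and onto foliage of 1- to 4-leaf plants, using a surfactant-containing non-phytotoxic solvent.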

[2] = tested on: morningglory; assay: Test B pre/postemergence morningglory; assay type: in vivo, Ipomoea hederacea
Outline: as §1

[3] = tested on: rice; assay: Test B flood test rice; assay type: in vivo, Oryza sativa
Outline: (§2)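 Flood test on plants grown to the 2-leaf stage; treated plants kept in greenhouse twelve to sixteen days, then visually rated against controls on a 0 (no effect) to 10 (complete control) scale.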

[4] = tested on: duck salad; assay: Test B flood test duck salad; assay type: in vivo, Heteranthera limosa
Outline: as §2

[5] = tested on: common pursiane; assay: Test D common purslane; assay type: in vivo, Portulaca oleracea
Outline: (§3)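 Visual injury ratings, 0 = no injury to 100 = complete control, taken 14 to 21 days after treatment. Test chemicals were in a surfactant-containing non-phytotoxic solvent; preemergence treatments went onto the sandy loam surface of seeded greenhouse pots within one day of sowing.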

[6] = tested on: goosegrass; assay: Test D goosegrass; assay type: in vivo, Eleusine indica; conditions: Preemergence, 0 to 100 scale
Outline: as §3

[7] = tested on: purple nutsedge; assay: Test D purple nutsedge; assay type: in vivo, Cyperus rotundus; conditions: Preemergence, 0 to 100 scale
Outline: as §3

[8] = tested on: sandbur; assay: Test D sandbur; assay type: in vivo, Cenchrus echinatus; conditions: Preemergence, 0 to 100 scale
Outline: as §3

[9] = tested on: winter wheat; assay: Test E winter wheat; assay type: in vivo, Triticum aestivum; conditions: Postemergence
Outline: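 Compounds formulated in non-phytotoxic solvent mixture with surfactant; for postemergence, sprayed on plants at 1- to 4-leaf stage grown in 60:40 sandy loam/greenhouse potting mix. Kept in greenhouse ~21 to 28 days, then visually rated against untreated controls.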

[10] = tested on: blackgrass; assay: Test E blackgrass; assay type: in vivo, Alopecurus myosuroides; conditions: Preemergence
[11] = tested on: green foxtail; assay: Test E green foxtail; assay type: in vivo, Setaria viridis; conditions: Preemergence
[12] = tested on: Italian ryegrass; assay: Test E Italian ryegrass; assay type: in vivo, Lolium multiflorum; conditions: Preemergence
[13] = tested on: winter wheat; assay: Test E winter wheat; assay type: in vivo, Triticum aestivum; conditions: Preemergence
[14] = tested on: wild oat; assay: Test E wild oat; assay type: in vivo, Avena fatua; conditions: Preemergence
[15] = tested on: winter barley; assay: Test E winter barley; assay type: in vivo, Hordeum vulgare; conditions: Preemergence
[16] = Postemergence, Rate 62 g/ha, scale 0 to 10, 0 is no effect, 10 is complete control
[17] = Postemergence, Rate 125 g/ha, scale of 0 to 10 where 0 is no effect and 10 is complete control
[18] = Postemergence, Rate 250 g/ha, scale 0 to 10, 0 no effect, 10 complete control
[19] = Preemergence, Rate 62 g/ha, scale 0 to 10 (0 no effect, 10 complete control)
[20] = Preemergence, Rate 125 g/ha, scale 0 to 10 (0 no effect, 10 complete control)
[21] = Preemergence, Rate 250 g/ha, scale of 0 to 10 where 0 is no effect and 10 is complete control
[22] = Preemergence, Rate 500 g/ha, scale 0 (no effect) to 10 (complete control)
[23] = Rate 500 g/ha, Postemergence, scale 0 to 10, 0 no effect, 10 complete control
[24] = Postemergence (flood test species), Rate 125 g/ha, scale of 0 to 10 where 0 is no effect and 10 is complete control
[25] = Rate 250 g/ha, headed Pre-emergence (flood test species), scale 0 to 10 (0 no effect, 10 complete control)
[26] = Rate 500 g/ha, headed Pre-emergence (flood test species), scale 0 to 10 (0 no effect, 10 complete control)
[27] = Rate 500 g/ha, listed under Postemergence (flood test species), scale 0 to 10, 0 no effect, 10 complete control
[28] = Rate 1000 g/ha, Pre-emergence (as headed), scale 0 to 10
[29] = Rate 2000 g/ha, Pre-emergence (as headed), scale 0 to 10
[30] = Rate 16 g/ha, 0 no injury, 100 complete control
[31] = Rate 32 g/ha, 0 no injury, 100 complete control
[32] = Rate 64 g/ha, 0 no injury, 100 complete control
[33] = Rate 125 g/ha, 0 no injury, 100 complete control
[34] = Rate 31 g/ha, 0 to 100 scale, 0 no effect, 100 complete control
[35] = Rate 62 g/ha, 0 to 100 scale, 0 no effect, 100 complete control
[36] = Rate 125 g/ha, 0 to 100 scale (0 no effect, 100 complete control)

## C=CCn1c(=O)on(C(=O)N(c2ccccc2)C(C)C)c1=O [Compound 93]
[1]; [16]
  Giant foxtail plant response rating: 6
[1]; [17]
  Giant foxtail plant response rating: 7
[1]; [18]
  Giant foxtail plant response rating: 9
[1]; [19]
  Giant foxtail plant response rating: 10
[1]; [20]
  Plant response rating, Giant foxtail: 10
[1]; [21]
  Plant response rating, Giant foxtail: 10
[1]; [22]
  Giant foxtail plant response rating: 10
[1]; [23]
  Giant foxtail plant response rating: 9
[2]; [16]
  Morningglory plant response rating: 6
[2]; [17]
  Morningglory plant response rating: 10
[2]; [18]
  Morningglory plant response rating: 10
[2]; [19]
  Morningglory plant response rating: 0
[2]; [20]
  Plant response rating, Morningglory: 0
[2]; [21]
  Plant response rating, Morningglory: 3
[2]; [22]
  Morningglory plant response rating: 6
[2]; [23]
  Morningglory plant response rating: 10
[3]; [24]
  Rice plant response rating: 0
[3]; [16]
  Rice plant response rating: 0
[3]; Rate 250 g/ha, Postemergence (flood test), scale 0 to 10, 0 is no effect, 10 is complete control
  Plant response rating, Rice: 0
[3]; [25]
  Rice plant response rating: 0
[3]; [26]
  Plant response rating, Rice: 0
[3]; [27]
  Rice plant response rating: 4
[3]; [28]
  Rice plant response rating: 0
[3]; [29]
  Rice plant response rating: 0
[4]; [24]
  Ducksalad plant response rating: 0
[4]; [16]
  Ducksalad plant response rating: 0
[4]; [25]
  Ducksalad plant response rating: 0
[4]; [26]
  Plant response rating, Ducksalad: 0
[4]; [27]
  Ducksalad plant response rating: 0
[4]; [28]
  Ducksalad plant response rating: 0
[4]; [29]
  Ducksalad plant response rating: 0
[4]; flood test, listed under Postemergence, Rate 250 g/ha, scale 0 to 10, 0 no effect, 10 complete control
  Ducksalad plant response rating: 0
[5]; Rate 16 g/ha; Preemergence; 0 to 100 scale, 0 no injury, 100 complete control
  Plant response rating, C. purslane: 0
[5]; Rate 32 g/ha; Preemergence; 0 to 100 scale, 0 no injury, 100 complete control
  Plant response rating, C. purslane: 0
[5]; Rate 64 g/ha, Preemergence; 0 to 100 scale, 0 no injury, 100 complete control
  Plant response rating, C. purslane: 0
[5]; Rate 125 g/ha, Preemergence; 0 to 100 scale, 0 no injury, 100 complete control
  Plant response rating, C. purslane: 0
[5]; Rate 250 g/ha; Preemergence; 0 to 100 scale
  Plant response rating, C. purslane: 0
[5]; Rate 500 g/ha, Preemergence; 0 to 100 scale
  Plant response rating, C. purslane: 80
[5]; Rate 500 g/ha; Preemergence; 0 to 100 scale
  Plant response rating, C. purslane: 0
[6]; [30]
  Plant response rating, Goosegrass: 65
[6]; [31]
  Plant response rating, Goosegrass: 98
[6]; [32]
  Plant response rating, Goosegrass: 98
[6]; [33]
  Plant response rating, Goosegrass: 100
[6]; Rate 250 g/ha
  Plant response rating, Goosegrass: 100
[6]; Rate 500 g/ha
  Plant response rating, Goosegrass: 100
[7]; [30]
  Plant response rating, Purple nutsedge: 0
[7]; [31]
  Plant response rating, Purple nutsedge: 0
[7]; [32]
  Purple nutsedge plant response rating: 20
[7]; [33]
  Purple nutsedge plant response rating: 0
[7]; Rate 250 g/ha
  Plant response rating, Purple nutsedge: 30
[7]; Rate 500 g/ha
  Plant response rating, Purple nutsedge: 100
[8]; [30]
  Plant response rating, Sandbur: 0
[8]; [31]
  Plant response rating, Sandbur: 0
[8]; [32]
  Sandbur plant response rating: 65
[8]; [33]
  Sandbur plant response rating: 65
[8]; Rate 250 g/ha
  Plant response rating, Sandbur: 100
[8]; Rate 500 g/ha
  Plant response rating, Sandbur: 100
[9]; [34]
  Plant response rating, Wheat (winter): 0
[9]; Rate 62 g/ha, 0 to 100 scale
  Plant response rating, Wheat (winter): 20
[9]; Rate 125 g/ha, 0 to 100 scale
  Plant response rating, Wheat (winter): 65
[9]; Rate 250 g/ha, 0 to 100 scale (0 no effect, 100 complete control)
  Plant response rating, Wheat (winter): 0
[10]; [34]
  Plant response rating, Blackgrass: 0
[10]; [35]
  Plant response rating, Blackgrass: 50
[10]; [36]
  Plant response rating, Blackgrass: 70
[10]; Rate 250 g/ha, 0 to 100 scale
  Plant response rating, Blackgrass: 75
[11]; [34]
  Plant response rating, Green foxtail: 30
[11]; [35]
  Plant response rating, Green foxtail: 70
[11]; [36]
  Plant response rating, Green foxtail: 80
[12]; [34]
  Plant response rating, I. Ryegrass: 30
[12]; [35]
  Plant response rating, I. Ryegrass: 50
[12]; [36]
  Plant response rating, I. Ryegrass: 70
[12]; Rate 250 g/ha, 0 to 100 scale
  Plant response rating, I. Ryegrass: 100
[13]; [34]
  Plant response rating, Wheat (winter): 20
[13]; [35]
  Plant response rating, Wheat (winter): 40
[13]; [36]
  Plant response rating, Wheat (winter): 40
[13]; Rate 250 g/ha, 0 to 100 scale
  Plant response rating, Wheat (winter): 100
[14]; [34]
  Plant response rating, Wild oat: 40
[14]; [35]
  Plant response rating, Wild oat: 50
[14]; [36]
  Plant response rating, Wild oat: 60
[15]; [34]
  Plant response rating, Barley (winter): 20
[15]; [35]
  Plant response rating, Barley (winter): 50
[15]; [36]
  Plant response rating, Barley (winter): 50
[15]; Rate 250 g/ha, 0 to 100 scale
  Plant response rating, Barley (winter): 50
